Measured values as given in patent US20060093553A1, “Cd26-based therapies for cancers and immune disease” (priority 2002, published 2006).

Columns and labels:
[1] = test system: 340-4 mutant CD26-positive/DPPIV-positive Jurkat transfectant; assay: Cell cycle analysis (propidium iodide staining); type: cell-based, Human; details: 24 h, 340-4 transfectant
[2] = test system: nontransfected control (parental) Jurkat cells; assay: Cell cycle analysis (propidium iodide staining); details: 24 h; for % G0/G1 / % G2/M / % S: Parental Jurkat; for Percentage G0G1 / Percentage G2/M / Percentage S: Control Jurkat
[3] = test system: wild-type CD26-transfected Jurkat cell lines (wtCD26); assay: Cell cycle analysis (propidium iodide staining); details: 24 h; for % G0/G1 / % G2/M / % S: wtCD26 transfectant; for Percentage G0G1 / Percentage G2/M / Percentage S: WtCD26 transfectant
[4] = test system: S630A Jurkat transfectants; assay: MTT uptake (cell growth) assay; type: cell-based, Human
Description: (§1) Cell growth assay was performed as described previously (Hansen et al., 1989). Cells were incubated in microplates in the presence of culture media alone, culture media and […] (50 μg/ml), culture media and doxorubicin at the indicated concentrations, or culture media, […]), and doxorubicin at the indicated concentrations, for a total volume of 100 μl (50,000 cells/well). After 48 h of incubation at 37° C., 25 μl of MTT was added to the wells at a final concentration of 1 mg/ml. The microplates were then incubated for 2 h at 37° C., followed by the addition of 100 μl of extraction buffer. After overnight incubation at 37° C., A570/nm measurements at 570 nm were performed, with the SE of the triplicate wells being less than 15%. MTT Assay. Cell growth assay was performed as described previously (Aytac et al., 2001). […] Following 36-48 h of incubation at 37° C., 25 ul of MET was added to the wells at a final concentration of 1 mg/ml. The microplates were then incubated for 2 h at 37° C., followed by the addition of 100 ul of extraction buffer. Following overnight incubation at 37° C., OD measurements at 570 nm were performed, with the standard errors of the mean of the triplicate wells being less than 15%. Cytotoxicity index was calculated as follows: [formula]

[5] = test system: wtCD26 Jurkat transfectants; assay: MTT uptake (cell growth) assay; type: cell-based, Human
Description: as §1

[6] = test system: S630A mutant CD26-positive/DPPIV-negative Jurkat transfectant; assay: Cell cycle analysis (propidium iodide staining); details: 24 h
[7] = test system: wtCD26 Jurkat transfectants; assay: Annexin V/PI apoptosis assay; type: cell-based, Human
Description: (§2) Annexin/PI Assays. Exposure of phosphatidylserine residues was quantified by surface annexin V staining as previously described (Vermes et al., 1995; […] and Pollard, 1994; Martin et al., 1995)). Briefly, cells were washed in binding buffer (10 mM HEPES, pH 7.4, 2.5 mM CaCl2, 140 mM NaCl), resuspended in 100 μl and incubated with 0.5 μl/ml annexin V-fluoresencein isothiocyanate (FITC) and 2.5 μg/ml propiodium iodide (PI) for 15 minutes in the dark. Cells were then washed again and resuspended in 400 μl of binding buffer, then flow cytometric analysis (FACScan; Becton Dickinson) was performed. Ten thousand cells were acquired per sample using Cellquest software and data were analyzed with the Paint-a-gate software (Becton Dickinson).

[8] = test system: 340-4 Jurkat transfectants; assay: Annexin V/PI apoptosis assay; type: cell-based, Human
Description: as §2

[9] = test system: 340-4 Jurkat transfectants; assay: MTT uptake (cell growth) assay; type: cell-based, Human; details: 340-4 transfectants, similar to wtCD26; 48 h; FIG. 1
M6P/IGF-IIR on monocytes = target: T1, M6P/IGF-IIR on monocytes (Homo sapiens, UniProt P11717); assay: Inhibition of sCD26 uptake into monocytes by M6P (FACS); type: cell-based; details: M6P 0, 0.1, 1.0, and 10 μM; concentration dependent; with or without TT; FIGS. 11A, 11B
T1 construct: endogenous in cells; host or cells: purified peripheral blood monocytes
Description: (§3) In studies assessing the expression of CD80, CD86, and HLA-DR on purified monocytes (0.5×10^6 monocytes/well), monocytes were preincubated with or without TT (0.5 μg/ml) for 16 h. Following incubation with sCD26 (0.5 μg/ml) for 24 h, FITC-conjugated CD80, CD86, and HLA-DR mAbs (10 μg/ml) were used with PE-conjugated anti-CD14 (10 μg/ml) to gate exclusively on the monocyte population. In experiments assessing the effect of M6P on cellular uptake of sCD26, purified monocytes (0.5×10^6 monocytes/well) were incubated with the appropriate concentration of M6P in the presence or absence of sCD26-OG for 24 h in standard medium. Cells were then washed twice in ice-cold PBS, followed by incubation for 2 min in acidic PBS (pH 3.0) to strip any sCD26-OG attached to the cell surface. Cells were washed in ice-cold PBS and were incubated with mouse Ig isotypes (1 μg/ml) to block nonspecific binding; this was followed by reaction with PE-conjugated anti-CD14 (10 μg/ml) to gate exclusively on monocyte population.

[10] = test system: HLA-DR expression on monocytes; assay: Surface expression on monocytes (flow cytometry); type: cell-based, Human
Description: as §3
(§4) Flow cytometric analysis of 10,000 viable cells was conducted on FACSCalibur (BD Biosciences, Mountain View, Calif.). Each experiment was repeated at least three times, and the results were provided in the form of a histogram of a representative experiment, or increased mean percent±SE fluorescent intensity compared with control or untreated cells.

[11] = test system: CD80 expression on monocytes; assay: Surface expression on monocytes (flow cytometry); type: cell-based, Human
Description: as §3, §4

[12] = test system: CD86 expression on monocytes; assay: Surface expression on monocytes (flow cytometry); type: cell-based, Human
Description: as §3, §4

[13] = test system: wtCD26 Jurkat transfectant; assay: Immunoblotting of etoposide-induced apoptosis markers after z-LEHD-fmk preincubation; type: cell-based, Human
Description: SDS-PAGE and Immunoblotting. After incubation at 37° C. in culture media and etoposide or doxorubicin at the concentrations and duration indicated, cells were harvested from wells, washed with PBS, and lysed in lysis buffer consisting of 1% NP-40, 0.5% deotxycolate, 0.1% SDS, 1 mM phenyhmethylsulfonyl fluoride, 1 mM benzamidine, 10 μg/ml aprotinin, 50 μg/ml leupeptin, 10 μg/ml soybean trypsin inhibitor and 1 μg/ml pepstatin. After incubating on ice for 5 min, nuclei were removed by centrifugation and supernatants were collected as whole cell lysates. Sample buffer (4×) consisting of 20% glycerol, 4.6% SDS, 0.5 M Tris (pH 6.8), 4% β-mercaptoethanol, and 0.2% bromophenol blue was added to the appropriate aliquots of supernatants. After boiling, protein samples were submitted to SDS-PAGE analysis on an 8% gel under standard conditions using a mini-Protean II system (Bio-Rad). For immunoblotting, the proteins were transferred onto nitrocellulobse (Immobilon-P; Millipore). After overnight. blocking at 4° C. in blocking solution consisting of 0.1% Tween 20 and 5% BSA in Tris-buffered saline, membranes were blotted with the appropriate primary antibodies diluted in blocking solution for 1 hour at room temperature. Membranes were then washed with blocking solution, and appropriate secondary antibodies diluted in blocking solution were then applied for 1 hour at room temperature. Secondary antibodies were goat antimouse or goat antirabbit horseradish peroxidase conjugates (Dako). Membranes were then washed with blocking solution, and proteins were subsequently detected by chemiluininescence (Amersham Pharmacia Biotech).

[14] = AIM V serum-free media, Doxorubicin 0.10 uM
[15] = AIM V serum-free media, Doxorubicin 0.25 uM
[16] = Doxorubicin 0.01 μM, S63A transfectant
[17] = Doxorubicin 0.05 μM, S630A transfectant
[18] = AIM V serum-free media, Etoposide 0.25 uM
[19] = AIM V serum-free media, Etoposide 0.50 uM
[20] = Etoposide 0.10 uM, S630A transfectant
[21] = Etoposide 0.25 uM, S630A transfectant
[22] = 2 hours preincubation with z-LEHD-fmk, then 3 μM etoposide 48 hours, FIG. 22B

T1 sequence (P11717 41-2491): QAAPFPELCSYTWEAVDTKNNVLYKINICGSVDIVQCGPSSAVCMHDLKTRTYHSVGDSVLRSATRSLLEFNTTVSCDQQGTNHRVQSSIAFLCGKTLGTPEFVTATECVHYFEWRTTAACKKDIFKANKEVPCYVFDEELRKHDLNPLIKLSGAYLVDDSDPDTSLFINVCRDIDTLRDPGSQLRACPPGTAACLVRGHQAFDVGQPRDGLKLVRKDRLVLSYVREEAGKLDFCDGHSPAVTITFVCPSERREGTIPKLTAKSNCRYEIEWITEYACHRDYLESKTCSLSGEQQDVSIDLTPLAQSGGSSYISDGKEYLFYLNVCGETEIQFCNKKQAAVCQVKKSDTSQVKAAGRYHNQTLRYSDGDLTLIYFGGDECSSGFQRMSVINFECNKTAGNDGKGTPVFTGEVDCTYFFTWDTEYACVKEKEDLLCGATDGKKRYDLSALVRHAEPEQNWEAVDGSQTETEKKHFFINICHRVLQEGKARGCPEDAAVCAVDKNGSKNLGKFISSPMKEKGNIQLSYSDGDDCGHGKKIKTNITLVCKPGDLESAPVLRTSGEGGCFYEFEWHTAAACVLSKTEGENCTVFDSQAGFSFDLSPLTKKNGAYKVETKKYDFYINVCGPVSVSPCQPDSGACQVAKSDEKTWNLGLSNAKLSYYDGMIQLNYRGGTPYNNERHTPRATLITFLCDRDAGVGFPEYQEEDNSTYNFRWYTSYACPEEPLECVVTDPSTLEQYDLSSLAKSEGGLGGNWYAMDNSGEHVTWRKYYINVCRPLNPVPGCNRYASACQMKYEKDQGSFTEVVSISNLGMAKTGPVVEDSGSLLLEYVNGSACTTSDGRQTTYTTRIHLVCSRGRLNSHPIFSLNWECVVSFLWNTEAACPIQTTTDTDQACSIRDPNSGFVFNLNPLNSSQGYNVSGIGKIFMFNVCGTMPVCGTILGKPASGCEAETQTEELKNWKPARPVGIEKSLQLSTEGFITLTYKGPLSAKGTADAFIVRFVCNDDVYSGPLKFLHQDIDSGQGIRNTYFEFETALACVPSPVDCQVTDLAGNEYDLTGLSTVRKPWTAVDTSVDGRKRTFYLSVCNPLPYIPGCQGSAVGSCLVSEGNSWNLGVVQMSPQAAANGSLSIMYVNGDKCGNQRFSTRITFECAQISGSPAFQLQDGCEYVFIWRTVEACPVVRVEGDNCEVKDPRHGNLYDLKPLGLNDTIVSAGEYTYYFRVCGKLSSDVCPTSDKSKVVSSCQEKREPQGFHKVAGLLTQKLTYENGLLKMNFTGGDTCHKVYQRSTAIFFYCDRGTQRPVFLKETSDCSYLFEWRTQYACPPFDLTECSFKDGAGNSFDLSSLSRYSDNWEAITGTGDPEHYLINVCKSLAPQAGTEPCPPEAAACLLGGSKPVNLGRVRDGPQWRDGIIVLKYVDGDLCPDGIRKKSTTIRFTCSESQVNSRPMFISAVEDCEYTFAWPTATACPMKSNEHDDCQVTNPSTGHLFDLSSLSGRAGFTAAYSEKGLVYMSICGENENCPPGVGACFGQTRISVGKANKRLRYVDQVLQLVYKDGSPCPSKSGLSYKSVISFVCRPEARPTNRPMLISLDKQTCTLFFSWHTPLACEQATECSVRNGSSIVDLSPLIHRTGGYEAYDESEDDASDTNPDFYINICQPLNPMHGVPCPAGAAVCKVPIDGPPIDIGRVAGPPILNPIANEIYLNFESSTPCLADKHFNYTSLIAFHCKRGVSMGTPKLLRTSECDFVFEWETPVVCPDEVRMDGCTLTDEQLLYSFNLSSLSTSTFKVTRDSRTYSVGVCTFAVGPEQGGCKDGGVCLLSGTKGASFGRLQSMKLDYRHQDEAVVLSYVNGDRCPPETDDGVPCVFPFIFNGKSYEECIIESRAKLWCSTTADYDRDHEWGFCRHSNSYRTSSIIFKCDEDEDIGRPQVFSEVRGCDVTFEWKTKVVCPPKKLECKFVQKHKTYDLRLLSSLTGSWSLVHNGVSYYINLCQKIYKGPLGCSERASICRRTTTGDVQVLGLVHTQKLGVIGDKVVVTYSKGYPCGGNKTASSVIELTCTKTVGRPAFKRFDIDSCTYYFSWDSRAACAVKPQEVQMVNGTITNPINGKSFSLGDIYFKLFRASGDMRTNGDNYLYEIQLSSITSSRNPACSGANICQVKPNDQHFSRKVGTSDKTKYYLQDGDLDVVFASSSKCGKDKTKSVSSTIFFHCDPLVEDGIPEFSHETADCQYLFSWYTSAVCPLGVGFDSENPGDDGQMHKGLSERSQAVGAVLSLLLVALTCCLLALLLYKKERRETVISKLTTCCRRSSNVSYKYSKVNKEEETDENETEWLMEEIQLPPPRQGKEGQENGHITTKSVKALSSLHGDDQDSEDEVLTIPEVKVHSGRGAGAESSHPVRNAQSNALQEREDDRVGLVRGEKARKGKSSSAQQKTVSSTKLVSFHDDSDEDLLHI

COc1cccc2c1C(=O)c1c(O)c3c(c(O)c1C2=O)C[C@@](O)(C(=O)CO)C[C@@H]3O[C@H]1C[C@H](N)[C@H](O)[C@H](C)O1 [Doxorubicin]
Percentage G0G1 ([1]; Doxorubicin 0.01 μM): 25%
Percentage G2/M ([1]; Doxorubicin 0.01 μM): 50%
Percentage S ([1]; Doxorubicin 0.01 μM): 25%
Percentage G0G1 ([1]; Doxorubicin 0.05 μM): 11%
Percentage G2/M ([1]; Doxorubicin 0.05 μM): 78%
Percentage S ([1]; Doxorubicin 0.05 μM): 11%
% G0/G1 [2, 14]: 43%
% G2/M [2, 14]: 27%
% S [2, 14]: 30%
% G0/G1 [2, 15]: 36%
% G2/M [2, 15]: 41%
% S [2, 15]: 23%
Percentage G0G1 ([2]; Doxorubicin 0.01 μM): 40%
Percentage G2/M ([2]; Doxorubicin 0.01 μM): 34%
Percentage S ([2]; Doxorubicin 0.01 μM): 26%
Percentage G0G1 ([2]; Doxorubicin 0.05 μM): 32%
Percentage G2/M ([2]; Doxorubicin 0.05 μM): 37%
Percentage S ([2]; Doxorubicin 0.05 μM): 31%
% G0/G1 [3, 14]: 31%
% G2/M [3, 14]: 49%
% S [3, 14]: 20%
% G0/G1 [3, 15]: 14%
% G2/M [3, 15]: 74%
% S [3, 15]: 12%
Percentage G0G1 ([3]; Doxorubicin 0.01 μM): 11%
Percentage G2/M ([3]; Doxorubicin 0.01 μM): 62%
Percentage S ([3]; Doxorubicin 0.01 μM): 27%
Percentage G0G1 ([3]; Doxorubicin 0.05 μM): 6%
Percentage G2/M ([3]; Doxorubicin 0.05 μM): 69%
Percentage S ([3]; Doxorubicin 0.05 μM): 25%
doxorubicin-mediated growth inhibition (MTT), sensitivity ([4]; S630A transfectants, 48 h, FIG. 1): less sensitive
doxorubicin-mediated growth inhibition (MTT), sensitivity ([5]; wtCD26 compared with parental (control) or vector only (neo) Jurkat cells, 48 h, FIG. 1): markedly increased sensitivity
Percentage G0G1 [6, 16]: 33%
Percentage G2/M [6, 16]: 35%
Percentage S [6, 16]: 32%
Percentage G0G1 [6, 17]: 27%
Percentage G2/M [6, 17]: 38%
Percentage S [6, 17]: 35%
doxorubicin-induced apoptosis (Annexin V/PI) ([7]; wtCD26 compared with parental or S630A Jurkat, 16 hours, FIG. 15B): greater apoptosis
doxorubicin-induced apoptosis (Annexin V/PI) ([8]; 340-4 compared with parental or S630A Jurkat, 16 hours, FIG. 15B): greater apoptosis
doxorubicin-mediated growth inhibition (MTT), sensitivity [9]: greater doxorubicin sensitivity

COc1cc([C@@H]2c3cc4c(cc3[C@@H](O[C@@H]3O[C@@H]5CO[C@@H](C)O[C@H]5[C@H](O)[C@H]3O)[C@H]3COC(=O)[C@H]23)OCO4)cc(OC)c1O [Etoposide]
% G0/G1 [2, 18]: 51%
% G2/M [2, 18]: 19%
% S [2, 18]: 30%
% G0/G1 [2, 19]: 36%
% G2/M [2, 19]: 36%
% S [2, 19]: 28%
% G0/G1 ([2]; Etoposide 0.10 uM): 41%
% G2/M ([2]; Etoposide 0.10 uM): 21%
% S ([2]; Etoposide 0.10 uM): 38%
% G0/G1 ([2]; Etoposide 0.25 uM): 27%
% G2/M ([2]; Etoposide 0.25 uM): 41%
% S ([2]; Etoposide 0.25 uM): 32%
% G0/G1 [3, 18]: 34%
% G2/M [3, 18]: 43%
% S [3, 18]: 23%
% G0/G1 [3, 19]: 18%
% G2/M [3, 19]: 64%
% S [3, 19]: 18%
% G0/G1 ([3]; Etoposide 0.10 uM): 25%
% G2/M ([3]; Etoposide 0.10 uM): 56%
% S ([3]; Etoposide 0.10 uM): 19%
% G0/G1 ([3]; Etoposide 0.25 uM): 12%
% G2/M ([3]; Etoposide 0.25 uM): 69%
% S ([3]; Etoposide 0.25 uM): 19%
etoposide-mediated growth inhibition (MTT), sensitivity ([4]; S630A compared to wtCD26 transfectants, FIG. 5): less sensitive
etoposide-mediated growth inhibition (MTT), sensitivity ([5]; wtCD26 compared to parental cells, FIG. 5): significantly increased sensitivity
% G0/G1 [6, 20]: 34%
% G2/M [6, 20]: 29%
% S [6, 20]: 37%
% G0/G1 [6, 21]: 22%
% G2/M [6, 21]: 48%
% S [6, 21]: 30%
etoposide-induced apoptosis (Annexin V/PI) ([7]; wtCD26 vs S630A or parental control Jurkat, 14 hours, FIG. 15A): more sensitive to the apoptotic effect
etoposide-induced apoptosis (Annexin V/PI) ([8]; 340-4 transfectants, similar to wtCD26, 14 hours, FIG. 15A): higher level of drug-induced apoptosis

O=P(O)(O)OC[C@H]1OC(O)[C@@H](O)[C@@H](O)[C@@H]1O (some centres unmarked) [M6P]
uptake of sCD26 into monocytes (M6P/IGF-IIR on monocytes): inhibited the uptake of sCD26 into monocytes

TT: recall antigen tetanus toxoid
% Increase of HLA-DR expression on monocytes [10]: 0.3 ± 0.2%
% Increase of CD80 expression on monocytes [11]: 2.0 ± 0.4%
% Increase of CD86 expression on monocytes [12]: 1.2 ± 2%

z-LEHD-fmk
etoposide-mediated cleavage of pro-caspase-9 ([13]; 2 hours preincubation with z-LEHD-fmk at varying doses, then 3 μM etoposide 16 hours, FIG. 18): inhibited by z-LEHD-fink in dose-dependent manner
cleavage of pro-caspase-3 and PARP ([13]; 2 hours preincubation with z-LEHD-fmk, then 3 μM etoposide 16 hours, FIG. 18): significantly reduced
etoposide-induced 32 kDa DR5 band [13, 22]: no longer detectable
etoposide-induced increase in the 58 kDa DR5 band [13, 22]: significantly attenuated
